Measurements as given in paper PMC5676022, “Pyrrolyl Pyrazoline Carbaldehydes as Enoyl-ACP Reductase Inhibitors: Design, Synthesis and Antitubercular Activity” (The Open Medicinal Chemistry Journal, 2017).
In brackets after ≈: the same amount, converted by molar mass.

Columns and labels:
M. tuberculosis H37Rv = assay: Microplate alamar blue assay (MABA), antitubercular activity; type: cell-based, Mycobacterium tuberculosis; conditions: 5 days at 37 C, lowest concentration preventing colour change blue to pink; for MIC: Mycobacterium tuberculosis, H37RV, 120 h
[1] = test system: human lung cancer cell line A549; assay: MTT-based cytotoxicity assay; type: cell-based; conditions: for cytotoxicity towards A549 (in words): A549, up to 100 µg/mL, compared to paclitaxel; for IC50: Homo sapiens, A549, MTT, up to 100 µg/mL, average of three independent experiments
Description: Cellular conversion of MTT [3-(4,5-dimethylthiazo-2-yl)-2,5-diphenyl-tetrazolium bromide] into a formazan product was used to estimate cytotoxic activity (IC50) of some of the compounds against cell-line A549 (lung adenocarcinoma) up to concentrations of 100 µg/mL using 5×10^3cells/well in a 96-well flat-bottom micro plate and maintained at 37 °C in 95% humidity and 5% CO2 for overnight using paclitaxel as the positive control.
Certain therapeutic properties are to be determined to examine the antimycobacterial potential of a drug. Toxicity is one of these criteria.

For `O=CN1N=C(c2ccc(-n3cccc3)cc2)CC1c1cccc(Cl)c1Cl` (stereo not shown) [Compound 4c, (4-(1H-pyrrol-1-yl)phenyl)-5-(2,3-Dichlorophenyl)-4,5-Dihydro-1H-Pyrazole-1-Carbaldehyde], the MIC (M. tuberculosis H37Rv) was 12.5 µg/mL (≈ 32.5 µM) and the melting point was 163 to 165 °C.

In the case of `O=CN1N=C(c2ccc(-n3cccc3)cc2)CC1c1ccc(F)cc1` (stereo not shown) [Compound 4k, (4-(1H-Pyrrol-1-yl)phenyl)-5-(4-Fluorophenyl)-4,5-Dihydro-1H-Pyrazole-1-Carbaldehyde], the MIC (M. tuberculosis H37Rv) was 12.5 µg/mL (≈ 37.5 µM).

With `COc1ccc(C2CC(c3ccc(-n4cccc4)cc3)=NN2C=O)cc1OC` (stereo not shown) [Compound 4j, (4-(1H-Pyrrol-1-yl) Phenyl)-5-(3,4-Dimethoxyphenyl)-4,5-Dihydro-1H-Pyrazole-1-Carbaldehyde] the MIC (M. tuberculosis H37Rv) was 12.5 µg/mL (≈ 33.3 µM), the melting point was 133 to 135 °C and the “cytotoxicity towards A549 (in words)” value [1] was “moderate cytotoxicity”. For the same compound, the IC50 [1] was 70.4 µg/mL (≈ 187 µM).

With `O=CN1N=C(c2ccc(-n3cccc3)cc2)CC1c1cccc(Oc2ccccc2)c1` (stereo not shown) [Compound 4n, (4-(1H-pyrrol-1-yl)Phenyl)-5-(3-Phenoxyphenyl)-4,5-Dihydro-1H-Pyrazole-1-Carbaldehyde] the MIC (M. tuberculosis H37Rv) was 12.5 µg/mL (≈ 30.7 µM), the melting point was 128 to 130 °C and the “cytotoxicity towards A549 (in words)” value [1] was “moderate cytotoxicity”. It also gave an IC50 [1] of 72.9 µg/mL (≈ 179 µM).

For `O=CN1N=C(c2ccc(-n3cccc3)cc2)CC1c1ccco1` (stereo not shown) [Compound 4o, (4-(1H-Pyrrol-1-yl)phenyl)-5-(Furan-2-yl)-4,5-Dihydro-1H-pyrazole-1-Carbaldehyde], the MIC (M. tuberculosis H37Rv) was 50 µg/mL (≈ 164 µM) and the melting point was 152 to 154 °C.

With `CC(C)c1ccc(C2CC(c3ccc(-n4cccc4)cc3)=NN2C=O)cc1` (stereo not shown) [Compound 4l, (4-(1H-Pyrrol-1-yl)Phenyl)-5-(4-Isopropylphenyl)-4,5-Dihydro-1H-Pyrazole-1-Carbaldehyde] the MIC (M. tuberculosis H37Rv) was 100 µg/mL (≈ 280 µM), the melting point was 140 to 142 °C and the “cytotoxicity towards A549 (in words)” value [1] was “moderate cytotoxicity”. For the same compound, the IC50 [1] was 71.1 µg/mL (≈ 199 µM).

In the case of `NC(=O)c1cnccn1` [pyrazinamide, reference compound], the MIC (M. tuberculosis H37Rv) was 3.12 µg/mL (≈ 25.4 µM).

With `Cc1ccc(C2CC(c3ccc(-n4cccc4)cc3)=NN2C=O)cc1` (stereo not shown) [Compound 4f, (4-(1H-pyrrol-1-yl)Phenyl)-5-(p-Tolyl)-4,5-Dihydro-1H-Pyrazole-1-Carbaldehyde] the MIC (M. tuberculosis H37Rv) was 25 µg/mL (≈ 75.9 µM) and the melting point was 148 to 150 °C.

`O=CN1N=C(c2ccc(-n3cccc3)cc2)CC1c1ccc(Cl)cc1Cl` (stereo not shown) [Compound 4d, (4-(1H-pyrrol-1-yl)Phenyl)-5-(2,4-Dichlorophenyl)-4,5-Dihydro-1H-Pyrazole-1-Carbaldehyde] showed an MIC (M. tuberculosis H37Rv) of 25 µg/mL (≈ 65.1 µM) and a melting point of 228 to 230 °C.

In the case of `O=CN1N=C(c2ccc(-n3cccc3)cc2)CC1c1ccc(Cl)cc1` (stereo not shown) [Compound 4b, (4-(1H-Pyrrol-1-yl) Phenyl)-5-(4-Chlorophenyl)-4,5-Dihydro-1H-Pyrazole-1-Carbaldehyde], the MIC (M. tuberculosis H37Rv) was 12.5 µg/mL (≈ 35.7 µM), the melting point was 168 to 170 °C and the “cytotoxicity towards A549 (in words)” value [1] was “moderate cytotoxicity”. The IC50 [1] was 75.6 µg/mL (≈ 216 µM).

In the case of `COc1ccc(C2CC(c3ccc(-n4cccc4)cc3)=NN2C=O)cc1` (stereo not shown) [Compound 4g, (4-(1H-pyrrol-1-yl)phenyl)-5-(4-Methoxyphenyl)-4,5-Dihydro-1H-Pyrazole-1-Carbaldehyde], the “MIC values M. tuberculosis H37Rv” value (M. tuberculosis H37Rv) was 6.25 µg/mL (≈ 18.1 µM), the MIC (M. tuberculosis H37Rv) was 6.25 µg/mL (≈ 18.1 µM) and the melting point was 112 to 114 °C.

With `O=CN1N=C(c2ccc(-n3cccc3)cc2)CC1c1cccc(Br)c1` (stereo not shown) [Compound 4m, (4-(1H-Pyrrol-1-yl)Phenyl)-5-(3-Bromophenyl)-4,5-Dihydro-1H-Pyrazole-1-Carbaldehyde] the MIC (M. tuberculosis H37Rv) was 12.5 µg/mL (≈ 31.7 µM), the melting point was 168 to 170 °C and the “cytotoxicity towards A549 (in words)” value [1] was “moderate cytotoxicity”. It also gave an IC50 [1] of 76 µg/mL (≈ 193 µM).

For `[H]/N=C(/N)N[C@H]1[C@H](O)[C@@H](O)[C@H](O[C@@H]2O[C@@H](C)[C@](O)(C=O)[C@H]2O[C@@H]2O[C@@H](CO)[C@H](O)[C@@H](O)[C@@H]2NC)[C@@H](N/C(N)=N\[H])[C@@H]1O` [streptomycin, reference compound], the MIC (M. tuberculosis H37Rv) was 6.25 µg/mL (≈ 10.7 µM).

In the case of `COc1cccc(C2CC(c3ccc(-n4cccc4)cc3)=NN2C=O)c1` (stereo not shown) [Compound 4h, (4-(1H-Pyrrol-1-yl)Phenyl)-5-(3-Methoxyphenyl)-4,5-Dihydro-1H-Pyrazole-1-Carbaldehyde], the “MIC values M. tuberculosis H37Rv” value (M. tuberculosis H37Rv) was 6.25 µg/mL (≈ 18.1 µM), the MIC (M. tuberculosis H37Rv) was 6.25 µg/mL (≈ 18.1 µM) and the melting point was 158 to 160 °C. For the same compound, the “cytotoxicity towards A549 (in words)” value [1] was “moderate cytotoxicity” and the IC50 [1] was 76.5 µg/mL (≈ 222 µM).

In the case of `COc1ccc(C2CC(c3ccc(-n4cccc4)cc3)=NN2C=O)c(OC)c1` (stereo not shown) [Compound 4i, (4-(1H-Pyrrol-1-yl)Phenyl)-5-(2,4-Dimethoxyphenyl)-4,5-Dihydro-1H-Pyrazole-1-Carbaldehyde], the “MIC values M. tuberculosis H37Rv” value (M. tuberculosis H37Rv) was 3.125 µg/mL (≈ 8.32 µM), the MIC (M. tuberculosis H37Rv) was 3.12 µg/mL (≈ 8.32 µM) and the melting point was 160 to 162 °C. The “cytotoxicity towards A549 (in words)” value [1] was “moderate cytotoxicity” and the IC50 [1] was 73.3 µg/mL (≈ 195 µM).

In the case of `CC(=O)O[C@H]1C(=O)[C@@]2(C)[C@H]([C@H](OC(=O)c3ccccc3)[C@]3(O)C[C@H](OC(=O)[C@H](O)[C@@H](NC(=O)c4ccccc4)c4ccccc4)C(C)=C1C3(C)C)[C@]1(OC(C)=O)CO[C@@H]1C[C@@H]2O` [paclitaxel, reference compound], the IC50 [1] was 47.6 µg/mL (≈ 55.8 µM).

For `O=CN1N=C(c2ccc(-n3cccc3)cc2)CC1c1ccccc1` (stereo not shown) [Compound 4a, 3-(4-(1H-Pyrrol-1-yl) Phenyl)-5-Phenyl-4,5-Dihydro-1H-Pyrazole-1-Carbaldehydes], the MIC (M. tuberculosis H37Rv) was 100 µg/mL (≈ 317 µM) and the melting point was 178 to 180 °C.

Compound `O=CN1N=C(c2ccc(-n3cccc3)cc2)CC1c1c(Cl)cccc1Cl` (stereo not shown) [Compound 4e, (4-(1H-pyrrol-1-yl)Phenyl)-5-(2,6-Dichlorophenyl)-4,5-Dihydro-1H-Pyrazole-1-Carbaldehyde] has an MIC (M. tuberculosis H37Rv) of 25 µg/mL (≈ 65.1 µM) and a melting point of 208 to 210 °C.
